Patent US20100120690A1, “Polypeptides Having Antimicrobial Activity and Polynucleotides Encoding Same” (Novozymes Adenium Biotech A/S, priority 2005, published 2010)

What follows are substances tested on panel of 6 different strains of Staphylococcus aureus (assay: Average MIC, NCCLS/CLSI guidelines using caMHB (Example 6)). Conditions: average over 6 S. aureus strains, duplicate; MIC above 32 counted as 64; read after 18-24 hours at 37° C.
Format: cell-based
Procedure: A large number of antimicrobial peptides of the invention were tested against a panel of 6 different strains of Staphylococcus aureus listed below:
Staphylococcus aureus, ATCC29213, MSSA, NCCLS reference strain; Staphylococcus aureus, ATCC25923, MSSA, NCCLS reference strain; Staphylococcus aureus, ATCC29737, MSSA; Staphylococcus aureus, E33235, MSSA; Staphylococcus aureus, 698-01, MRSA ST5, Str, Kan, Oxa; Staphylococcus aureus, 566-03, MRSA ST80, Oxa, Tet, Fus, Kan.
The staphylococci were exposed to the following peptide concentrations: 32; 16; 8; 4; 2; 1; 0.5; 0.25; 0.13; […]; and 0.03 microgram/mL. All peptides were purified, HPLC quantified and the concentrated peptides (>160 micrograms/mL) were diluted to 160 micrograms/mL in peptide dilution buffer (0.1% BSA, 0.01% Acetic Acid).
The MIC determination was done essentially as described by NCCLS/CLSI guidelines using caMHB. The MICs were read after 18-24 hours of 37° C. incubations and recorded along with the CFU in the table below.
A total number of 95 antimicrobial peptides of the invention were evaluated in duplicate against the 6 bacterial strains described above.
In the majority of the double determinations (93%), the MIC varied <2 fold. An average MIC is tabulated below. If the MIC was above 32 micrograms/mL, a value of 64 was used to calculate the average.
For “D11G + N17I: antimicrobial peptide of the invention, Plectasin variant (GFGCNGPWDEGDMQCHIHCKSIKGYKGGYCAKGGFVCKCY)”, the “Average MIC” value was 16 micrograms/mL. For “N17R + Y25R: antimicrobial peptide of the invention, Plectasin variant (GFGCNGPWDEDDMQCHRHCKSIKGRKGGYCAKGGFVCKCY)”, the “Average MIC” value was 18 micrograms/mL. In the case of “N5G + M13W + N17S: antimicrobial peptide of the invention, Plectasin variant (GFGCGGPWDEDDWQCHSHCKSIKGYKGGYCAKGGFVCKCY)”, the “Average MIC” value is reported as 10 micrograms/mL. With “N5G + M13W: antimicrobial peptide of the invention, Plectasin variant (GFGCGGPWDEDDWQCHNHCKSIKGYKGGYCAKGGFVCKCY)” the “Average MIC” value was 9 micrograms/mL.

These substances were tested on Staphylococcus carnosus ATCC51365 (assay: Yeast screening assay: radial diffusion assay of yeast supernatants). Conditions: yeast supernatant, clearing zone in radial diffusion assay.
Format: cell-based
Parameters: key: An activity of 3 is better than Plectasin; An activity of 2 corresponds to the activity of Plectasin; 1 is worse than Plectasin
Procedure: A range of antimicrobial polypeptides, which are variants of SEQ ID NO: 1 (Plectasin), were tested for antimicrobial activity by expressing them in S. cerevisae and screening the supernatant of the yeast transformants for antimicrobial activity against Staphylococcus carnosus ATCC51365.
Radial Diffusion Assay was carried out as described in Methods in Molecular Biology, Vol. 78, Antibacterial peptide protocol, William M. Shafer, Human Press.
200-300 yeast transformant colonies were plated on 14 cm round plates containing 25 mL SC growth medium supplemented with 1.5% galactose, 0.5% glucose and 1.5% agarose. Plates were incubated for three hours at room temperature, overlaid with 25 mL of the same growth medium and allowed to grow for three days at 30° C. Then the plates were overlaid with 25 mL of LB growth medium containing 1.5% agarose and 10^5 cells of the indicator strain Staphylococcus carnosus and incubated at 30° C. overnight to allow growth of the bacterial cells. Next day, the plates were stained with 1.5 mM MTT to facilitate visualization of the clearing zones.
Yeast colonies creating clearing zones were transferred to microtiter plates containing 200 micro-L of SC growth medium supplemented with 2% glucose and ampicillin (100 mg/L). Such plates designated “master plates” were incubated for 2 days at 30° C. with shaking at 450 rpm to allow yeast growth.
10 micro-L SC growth medium from each well of the master plates were transferred to new microtiter plates containing 200 micro-L SC growth medium with 1.5% galactose and 0.5% glucose. These plates were called daughter plates and were incubated for 3 days at 30° C. under 450 rpm shaking to allow yeast growth and peptide synthesis.
Finally a Radial Diffusion Assay (RDA) was performed following the protocol described in Methods in Molecular Biology to analyse and quantify the antimicrobial activity of the yeast supernatants against S. carnosus.
Briefly, 30 mL of minimal underlay medium containing 1% agarose and 5×10^5 cfu/mL of S. carnosus was poured in an omnitray plate (Nunc, 242811). A Nunc TSP plate (#445497) was inserted immediately on the plate to allow a 96 well pattern formation. Once the media had solidified, the TSP plate was removed and 10 micro-L of yeast supernatant samples were applied on the holes. Plates were incubated 3 hours at 37° C. and overlaid with 15 mL of LB agar growth medium. Finally, plates were incubated overnight at 37° C. and coloured with 1.5 mM MTT to visualize the clearing zones.
Inspection and measurements of the clearing zones was performed on the plates. The corresponding yeast clones resulting in clearing zones of similar or increased size than the clones encoding for wild type plectasin were picked from the master plates and transferred to agar plates containing SC growth medium with 2% glucose and ampicillin (100 mg/L). Such plates were incubated for further 2 days at 30° C. to allow yeast growth. Subsequently, colony PCR was performed followed by sequence analysis to identify amino acid changes in the plectasin sequence.
An activity of 2 corresponds to the activity of Plectasin. An activity of 3 is better than Plectasin, and 1 is worse than Plectasin.
With “GFGCNGPWDEDDMQCHNHCKSIKGHKGGYCAKGGFVCKCY [Mutation Y25H]” the “Activity (antimicrobial activity relative to the activity of plectasin)” value was 2. With “GFGCNGPWDEDDMQCHNHCKSIKGYKGGYCAKGGFTCKCY [Mutation V36T]” the “Activity (antimicrobial activity relative to the activity of plectasin)” value was 3. “GFGCNGPWDEDDMHCHNHCKSIKGYKGGYCAKGGFVCKCY [Mutation Q14H]” was tested, and the “Activity (antimicrobial activity relative to the activity of plectasin)” value was 3. For “GFGCNGPWDEDDMQCHNHCKSIKGYKGGYCAKGGFVCHCY [Mutation K38H]”, the “Activity (antimicrobial activity relative to the activity of plectasin)” value was 2. For “GFGCNGPWTEDDMQCHNHCKSIKGYKGGYCAKGGFVCKCY [Mutation D9T]”, the “Activity (antimicrobial activity relative to the activity of plectasin)” value was 3. With “GFGCNGPWDEDDMQCHNQCKSIKGYKGGYCAKGGFVCKCY [Mutation H18Q]” the “Activity (antimicrobial activity relative to the activity of plectasin)” value was 2. In the case of “GFGCNGPWDEDDMQCHNHCKSIKFYKGGYCAKGGFVCKCY [Mutation G24F]”, the “Activity (antimicrobial activity relative to the activity of plectasin)” value is reported as 2. “GFGCNGVWDEDDMQCHNHCKSIKGYKGGYCAKGGFVCKCY [Mutation P7V]” was tested, and the “Activity (antimicrobial activity relative to the activity of plectasin)” value was 2. With “GFGCNGPWDEDDMQCHNHCKSWKGYKGGYCAKGGFVCKCY [Mutation I22W]” the “Activity (antimicrobial activity relative to the activity of plectasin)” value was 2. In the case of “GFGCNGPWDEMDMQCHNHCKSIKGYKGGYCAKGGFVCKCY [Mutation D11M]”, the “Activity (antimicrobial activity relative to the activity of plectasin)” value is reported as 3. With “GFGCNGPWQEDDMQCHNHCKSIKGYKGGYCAKGGFVCKCY [Mutation D9Q]” the “Activity (antimicrobial activity relative to the activity of plectasin)” value was 3. In the case of “GFGCNGPWDELDMQCHNHCKSIKGYKGGYCAKGGFVCKCY [Mutation D11L]”, the “Activity (antimicrobial activity relative to the activity of plectasin)” value is reported as 3. For “GFGCNGPWDEDDMQCHNHCKSIKGYKGGYCAKGGMVCKCY [Mutation F35M]”, the “Activity (antimicrobial activity relative to the activity of plectasin)” value was 2. In the case of “GFGCNGPWDESDMQCHNHCKSIKGYKGGYCAKGGFVCKCY [Mutation D11S]”, the “Activity (antimicrobial activity relative to the activity of plectasin)” value is reported as 3. With “GFGCNGPWDEDDMQCHNHCKSIKGMKGGYCAKGGFVCKCY [Mutation Y25M]” the “Activity (antimicrobial activity relative to the activity of plectasin)” value was 2. “GFGCNGPWDEDDMQCHNHCKSIKGYKGGYCAKGGFVCRCY [Mutation K38R]” was tested, and the “Activity (antimicrobial activity relative to the activity of plectasin)” value was 2. In the case of “GFGCNGPWDENDMQCHNHCKSIKGYKGGYCAKGGFICKCY [D11N + V36I]”, the “Activity (antimicrobial activity relative to the activity of plectasin)” value is reported as 3. In the case of “GFGCNKPWDEDDMQCHNHCKSIKGYKGGYCAKGGFVCKCY [Mutation G6K]”, the “Activity (antimicrobial activity relative to the activity of plectasin)” value is reported as 2. “GFGCNGPWDEDDMQCHNHCKSIKGYKGGYCVKGGFVCKCY [Mutation A31V]” was tested, and the “Activity (antimicrobial activity relative to the activity of plectasin)” value was 2. “GFGCNGPWDEDDMQCHNHCKSIKIYKGGYCAKGGFVCKCY [Mutation G24I]” was tested, and the “Activity (antimicrobial activity relative to the activity of plectasin)” value was 2. “GFGCNGPWDEIDMQCHNHCKSIKGYKGGYCAKGGFVCKCY [Mutation D11I]” was tested, and the “Activity (antimicrobial activity relative to the activity of plectasin)” value was 3. With “GFGCNGPWDEKDMQCHNHCKSIKGYKGGYCAKGGFVCKCY [Mutation D11K]” the “Activity (antimicrobial activity relative to the activity of plectasin)” value was 3. With “GFGCNGPWDEDDMACHNHCKSIKGYKGGYCAKGGFVCKCY [Mutation Q14A]” the “Activity (antimicrobial activity relative to the activity of plectasin)” value was 2. For “GFGCNGPWDEDDMQCHNHCKSIKGYKGGYCTKGGFVCKCY [Mutation A31T]”, the “Activity (antimicrobial activity relative to the activity of plectasin)” value was 3. In the case of “GFGCNGPWDEDDLQCHNHCKSIKGYKGGYCAKGGFVCKCY [Mutation M13L]”, the “Activity (antimicrobial activity relative to the activity of plectasin)” value is reported as 2. With “GFGCNGPWDADDMQCHNHCKSIKGYKGGYCAKGGFVCKCY [Mutation E10A]” the “Activity (antimicrobial activity relative to the activity of plectasin)” value was 2. With “GFGCNGPWDECDMQCHNHCKSIKGYKGGYCAKGGFVCKCY [Mutation D11C]” the “Activity (antimicrobial activity relative to the activity of plectasin)” value was 2. With “GFGCNGPWDEDDMQCHNFCKSIKGYKGGYCAKGGFVCKCY (Synthetic antimicrobial polypeptide) [Mutation H18F]” the “Activity (antimicrobial activity relative to the activity of plectasin)” value was 2. For “GFGCNGPWDLDDMQCHNHCKSIKGYKGGYCAKGGFVCKCY [Mutation E10L]”, the “Activity (antimicrobial activity relative to the activity of plectasin)” value was 2. In the case of “GFGCNGPWDEDDMSCHNHCKSIKGYKGGYCAKGGFVCRCY [Q14S + K38R]”, the “Activity (antimicrobial activity relative to the activity of plectasin)” value is reported as 2. With “GFGCNGPWDEDDMQCHNHCKSIKGYKGGACAKGGFVCKCY [Mutation Y29A]” the “Activity (antimicrobial activity relative to the activity of plectasin)” value was 2. With “GFGCNGPWDEDDMVCHNHCKSIKGYKGGYCAKGGFVCKCY [Mutation Q14V]” the “Activity (antimicrobial activity relative to the activity of plectasin)” value was 2. In the case of “GFGCNGPWDEDDMQCHNHCKSIKGNKGGYCAKGGFVCKCY [Mutation Y25N]”, the “Activity (antimicrobial activity relative to the activity of plectasin)” value is reported as 2. In the case of “GFGCNGPWDEDDMQCHNHCKSIKGYKGGYCEKGGFVCKCY [Mutation A31E]”, the “Activity (antimicrobial activity relative to the activity of plectasin)” value is reported as 2. “GFGCNGPWDERDIQCHNHCKSIKGYKGGYCAKGGFVCKCY [D11R + M13I]” was tested, and the “Activity (antimicrobial activity relative to the activity of plectasin)” value was 3. For “GFGCNGPWDEDDFQCHNHCKSIKGYKGGYCAKGGFVCKCY [Mutation M13F]”, the “Activity (antimicrobial activity relative to the activity of plectasin)” value was 2. With “GFGCNGPWDEDDMQCHNHCKSIKGYKGGYCAKGGFVCNCY [Mutation K38N]” the “Activity (antimicrobial activity relative to the activity of plectasin)” value was 2. With “GFGCNGPWDEDDMQCHNHCQSIKGYKGGYCAKGGFVCKCY [Mutation K20Q]” the “Activity (antimicrobial activity relative to the activity of plectasin)” value was 2. For “GFGCNGPWDEDDMQCHNHCKSIKGYKGGYCSKGGFVCKCY [Mutation A31S]”, the “Activity (antimicrobial activity relative to the activity of plectasin)” value was 2. In the case of “GFGCNGPWDEDDMQCHNHCKSIKSYKGGYCAKGGFVCKCY [Mutation G24S]”, the “Activity (antimicrobial activity relative to the activity of plectasin)” value is reported as 2. For “GFGCNGPWDEDPMQCHNHCKSIKGYKGGYCAKGGFVCKCY [Mutation D12P]”, the “Activity (antimicrobial activity relative to the activity of plectasin)” value was 2. “GFGCLGPWDEDDMQCHNHCKSIKGYKGGYCAKGGFVCKCY [Mutation N5L]” was tested, and the “Activity (antimicrobial activity relative to the activity of plectasin)” value was 2. With “GFGCNGPWDEGDMQCHNHCKSIKGYKGGYCAKGGFVCKCY [Mutation D11G]” the “Activity (antimicrobial activity relative to the activity of plectasin)” value was 3. With “GFGCNGPWDEDDMQCHNHCKSIKGYKGGYCAKGGVVCKCY [Mutation F35V]” the “Activity (antimicrobial activity relative to the activity of plectasin)” value was 2.
